From PMC7589326, “Synthesis and Pharmacological Evaluation of Fluorinated Quinoxaline‐Based κ‐Opioid Receptor (KOR) Agonists Designed for PET Studies” (Chemmedchem, 2020)
“Also recorded” adds a separate entry of the source.

Key:
KOR [1] = target: T1, KOR (Homo sapiens, UniProt P41145); parameters: expressed in transfected cells; host or cells: HEK 293T (ATCC CRL-11268); method as in PMID 30543421; conditions: human HEK 293T cells; refers to U-50,488 (100 %); cited from earlier work
Target sequence in this assay (P41145 whole entry, the tested form may be a part): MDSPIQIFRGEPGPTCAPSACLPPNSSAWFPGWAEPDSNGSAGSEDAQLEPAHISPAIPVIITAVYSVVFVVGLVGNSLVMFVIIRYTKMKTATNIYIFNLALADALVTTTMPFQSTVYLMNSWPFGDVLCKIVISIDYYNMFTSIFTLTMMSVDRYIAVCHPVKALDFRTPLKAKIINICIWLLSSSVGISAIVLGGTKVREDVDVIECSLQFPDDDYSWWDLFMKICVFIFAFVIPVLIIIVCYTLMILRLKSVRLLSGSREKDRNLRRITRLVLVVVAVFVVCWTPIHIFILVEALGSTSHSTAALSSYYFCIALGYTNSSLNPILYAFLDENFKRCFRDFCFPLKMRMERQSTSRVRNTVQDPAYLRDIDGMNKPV

KOR [2] = target: T1, KOR; parameters: expressed in transfected cells; host or cells: HTLA cells (stably expressing TEV-fused β-arrestin2); method as in PMID 30543421; conditions: human HTLA cells; refers to U-50,488 (100 %); cited from earlier work
Target sequence in this assay (P41145 whole entry, the tested form may be a part): as above
Target sequence in this assay (P32121 whole entry partner, the tested form may be a part): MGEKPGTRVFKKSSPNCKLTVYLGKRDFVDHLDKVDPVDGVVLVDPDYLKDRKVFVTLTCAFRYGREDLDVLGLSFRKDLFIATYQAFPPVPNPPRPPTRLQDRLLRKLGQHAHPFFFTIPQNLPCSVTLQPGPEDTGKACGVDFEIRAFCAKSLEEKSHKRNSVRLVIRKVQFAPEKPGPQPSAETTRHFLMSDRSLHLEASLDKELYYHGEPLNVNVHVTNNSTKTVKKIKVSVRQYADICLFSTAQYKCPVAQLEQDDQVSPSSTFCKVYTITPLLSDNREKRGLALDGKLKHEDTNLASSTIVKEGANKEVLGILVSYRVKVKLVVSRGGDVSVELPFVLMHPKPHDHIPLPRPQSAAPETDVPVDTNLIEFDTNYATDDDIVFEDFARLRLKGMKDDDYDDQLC

MOG induced EAE = conditions: mouse, in vivo; cited from earlier work
[3] = Biostability and biotransformation in mice in vivo (radio-HPLC of pooled blood); parameters: species or system mouse; conditions: pooled blood of three mice, 90 min after injection
Procedure: In order to investigate the in vivo biotransformation of [^18F]‐2, the blood of three mice 90 min after injection of [^18F]‐2 was pooled and analyzed.
Approximately 72 MBq of [^18F]‐2 (in a volume of 100 μL) were injected into the tail vein of each of three 11‐week‐old C57/BL6 mice. The animals were sacrificed 90 min after injection. Whole blood of the three mice was pooled (∼2 mL) and centrifuged (3 min) to isolate plasma. Plasma (∼0.7 mL) was separated and mixed with ice‐cold CH3CN (1.4 mL). After further centrifugation for 5 min, the supernatant was separated and evaporated to dryness in vacuo at moderate temperatures (≤60 °C). The residue was dissolved in water for injection (20 μL) and the solution was analyzed by analytical radio‐HPLC B, method B.

[4] = In vivo biodistribution, small animal PET in C57BL/6 mice; parameters: species or system mouse; conditions: C57BL/6 mice, intravenous injection
Procedure: Next, the distribution of the PET tracer [^18F]‐2 in mice was investigated. For this purpose, [^18F]‐2 was injected into 15‐week‐old C57BL/6 mice. […] Already after 2 min the radioactivity was almost completely found in liver, kidneys and bladder. In the liver, the radioactivity remained almost constant over the period of 90 min (Figure 6). Besides a transient local increase in radioactivity in the submandibular and harderian glands, no significant accumulation of [^18F]‐2 in non‐excreting organs such as heart, lung and muscles as indicator for unspecific binding could be detected.
Adult C57BL/6 mice (n=2 male, 15 weeks, 28 g for [^18F]‐2; n=2, male, 10 weeks, 25 g for [^18F]‐14c) were anesthetized by isoflurane/O2 and one lateral tail vein was cannulated BY using a 27 G needle connected to 15 cm polyethylene catheter tubing. Radiotracers (∼500 kBq/g bodyweight, 15 MBq) were injected as a bolus (50 μL compound flushed with 100 μL saline) via the tail vein and subsequent PET scanning was performed.
Small Animal PET Scanning. PET experiments were carried out using a submillimeter high resolution (0.7 mm full width at half‐maximum) small animal scanner (32 module quadHIDAC, Oxford Positron Systems Ltd., Oxford, UK) with uniform spatial resolution (<1 mm) over a large cylindrical field (165 mm diameter, 280 mm axial length). List‐mode data were acquired for 90 min and reconstructed into dynamic time frames using an iterative reconstruction algorithm. Subsequently, the scanning bed was transferred to the computed tomography (CT) scanner (Inveon, Siemens Medical Solutions, U.S.), and a CT acquisition with a spatial resolution of 80 μm was performed for each mouse. Reconstructed image data sets were coregistered based on extrinsic markers attached to the multimodal scanning bed and the in‐house developed image analysis software MEDgical. Three‐dimensional volumes of interest (VOIs) were defined over the respective organs in CT data sets, transferred to the coregistered PET data, and analyzed quantitatively. Regional uptake was calculated as percentage of injected dose by dividing counts per milliliter in the VOI by total counts in the mouse multiplied by 100 (%ID/mL).

[5] = Distribution coefficient logD7.4, shake flask method with radioligand; format: physicochemical; conditions: n-octanol / phosphate buffered saline pH 7.4
Procedure: The distribution coefficient at pH 7.4 (logD7.4) was determined by a shake flask method using the radioligand [^18F]‐2. After distribution of [^18F]‐2 between n‐octanol and phosphate buffered saline (pH 7.4) layers, the radioactivity in both layers was determined and set in ratio. According to this procedure, a logD7.4 value of 1.37±0.06 was determined indicating a moderate lipophilic compound, which should be able to penetrate into the central nervous system.
The lipophilicity of radioligands [^18F]‐2 and [^18F]‐14c was assessed by determination of the water n‐octan‐1‐ol distribution coefficient (logD) following a published procedure.57 In brief, approximately 3.2 MBq of radioligand [^18F]‐2 and approximately 0.3 MBq of radiotracer [^18F]‐14c, respectively, were mixed with equal amounts (0.6 mL) of phosphate buffered saline (PBS, pH 7.4) and n‐octan‐1‐ol. The resulting biphasic system was mixed vigorously for 3 min at room temperature and subsequently, the tubes were centrifuged (≥5 min). Then 400 μL of the n‐octan‐1‐ol layer was separated and 400 μL of PBS were added. The mixture was mixed vigorously for 10 min at room temperature followed by centrifugation of the tubes for≥5 min. Two samples of 100 μL of each layer were counted in a γ‐counter (2480 Automatic Gamma Counter Wizard^2, Perkin‐Elmer). The distribution coefficient was determined by calculating the ratio cpm(n‐octan‐1‐ol)/cpm(PBS) and expressed as logD 7.4 (log(cpmn‐octanol/cpmPBS)). Three independent experiments were performed in duplicate and data were provided as mean values ±standard deviation.

[6] = Stability in human serum (radio-HPLC); format: in vitro ADME; conditions: 90 min, 37 °C
Procedure: (§1) Enzymes present in blood serum could be able to transform the radioactive PET tracer [^18F]‐2. Therefore, the blood serum stability of [^18F]‐2 was investigated before testing the tracer in vivo. [^18F]‐2 was incubated with mouse and human serum for 90 min at 37 °C.
(§2) The serum stability of radioligands [^18F]‐2 and [^18F]‐14c was evaluated by incubation in mouse or human serum at 37 °C for up to 90 min. An aliquot of formulated [^18F]‐2 or [^18F]‐14c (20 μL, ca. 6.6 MBq and ca.10 MBq, respectively) was added to a sample of mouse serum (200 μL) or human serum (200 μL), and the mixtures were incubated at 37 °C. Samples of 20 μL each were taken after periods of 10, 30, 60 and 90 min and ice‐cold DNA‐grade CH3CN (100 μL) were added. After centrifugation for ≥5 min, the supernatant was analyzed by analytical radio‐HPLC B, method B.

[7] = Stability in mouse serum (radio-HPLC); format: in vitro ADME; conditions: 90 min, 37 °C
Procedure: as §1, §2

[8] = In vitro biotransformation with mouse liver microsomes and NADPH (LC-MS/MS); conditions: mouse liver microsomes, NADPH, 90 min

## O=C(Cc1ccc(Cl)c(Cl)c1)N1CCN(Cc2cn(CCF)nn2)C2CCCC(N3CCCC3)C21 (centres unmarked) [compound 2]
KOR [1]
  cAMP E max: 103%
KOR [2]
  β-Arrestin-2 E max: 86%
MOG induced EAE
  protection from MS-like symptoms / disease severity in EAE: significantly decreased diseases severity and delayed disease onset; also recorded: almost complete protection

## O=C(Cc1ccc(Cl)c(Cl)c1)N1CCN(Cc2cn(CC[18F])nn2)[C@H]2CCC[C@H](N3CCCC3)[C@H]21 [[^18F]‐2, 2‐(3,4‐Dichlorophenyl)‐1‐((4aR,8R,8aS)‐ and ((4aS,8S,8aR)‐ 4‐{[1‐(2‐[^18F]fluoroethyl)‐1H‐1,2,3‐triazol‐4‐yl]methyl}‐8‐ (pyrrolidin‐1‐yl)‐3,4,4 a,5,6,7,8,8 a‐octahydroquinoxalin‐ 1(2H)‐yl)ethan‐1‐one]
[3]
  intact PET tracer in blood: 90%
[4]
  radioactivity in the bones / defluorination: increased radioactivity in the bones was not observed
[4]; 90 min observation
  enrichment of radioactivity in brain or spinal cord (PET images): do not show any enrichment of radioactivity in the brain or spinal cord
[4]; hepatic and renal pathways
  clearance from the body: very fast and efficient clearance
[5]
  logD: 1.37 ± 0.06
[6]
  stability in human serum: high stability
[7]
  stability in mouse serum: high stability

## O=C(Cc1ccc(Cl)c(Cl)c1)N1CCNC2CCCC(N3CCC(F)C3)C21 (centres unmarked) [14c‐5]
[8]
  amount of metabolite formed from 14c: minor amounts
